Each compound was assayed against T1, PLK1 (Homo sapiens, UniProt P53350) (assay: Biochemical Characterization Assay: HTRF kinase assay, GST-PLK1 phosphorylation of GST-p53). Conditions: GST-PLK1, GST-p53 substrate, ATP.
T1 construct: Full-length, active GST-PLK1 is purified from Sf9 insect cells; made in house; host or cells: Sf9 insect cells
Protocol: Biochemical Characterization Assay
Full-length, active GST-PLK1 is purified from Sf9 insect cells, and full-length GST-p53 is purified from E. coli. Anti-phospho p53 antibody is from Cell Signaling Technology. Europium-conjugated anti-rabbit antibody is from PerkinElmer Life and Analytical Sciences. APC-conjugated anti-GST antibody is from Prozyme.
Six microliters of GST-PLK1 (3 ug/mL) in Kinase Assay Buffer are then added and the solution incubated at 37° C. for 35 minutes. Six microliters of solution containing 43 mM EDTA to stop the reaction and a 1:600 dilution of anti-phospho-p53 antibody in 20 mM HEPES pH 7, 50 mM NaCl, and 0.5 mg/mL BSA (Antibody Binding Buffer) are added and the solution incubated at 37° C. for 30 minutes. […] The HTRF signal is read on an Envision reader from PerkinElmer Life and Analytical Sciences.

T1 sequence (P53350 whole entry): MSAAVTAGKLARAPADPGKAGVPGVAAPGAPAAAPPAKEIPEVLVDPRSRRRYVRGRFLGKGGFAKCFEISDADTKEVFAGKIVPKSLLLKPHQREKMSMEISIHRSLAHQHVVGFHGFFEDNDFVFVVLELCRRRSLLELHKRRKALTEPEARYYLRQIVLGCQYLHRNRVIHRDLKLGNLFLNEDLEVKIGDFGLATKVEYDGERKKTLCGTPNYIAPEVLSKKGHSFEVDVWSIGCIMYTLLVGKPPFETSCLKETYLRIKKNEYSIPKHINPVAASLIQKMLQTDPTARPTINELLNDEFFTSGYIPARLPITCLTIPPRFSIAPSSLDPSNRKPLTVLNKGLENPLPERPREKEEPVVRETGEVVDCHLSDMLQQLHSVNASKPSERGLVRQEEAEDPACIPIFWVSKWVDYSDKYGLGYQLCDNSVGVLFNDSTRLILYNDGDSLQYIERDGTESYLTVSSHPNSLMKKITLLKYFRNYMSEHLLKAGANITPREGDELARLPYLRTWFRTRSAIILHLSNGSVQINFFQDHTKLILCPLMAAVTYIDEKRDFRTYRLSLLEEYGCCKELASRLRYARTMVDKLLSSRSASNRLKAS

| IC50 [nM] | Structure (SMILES) |
| --- | --- |
| 1 to 50 | COc1cc(C(=O)NCCCN(C)C)ccc1Nc1ncc2c(n1)N(C1CCC1)CC(F)(F)C(=O)N2C [Example I-9, 4-(9-cyclobutyl-7,7-difluoro-5-methyl-6-oxo-6,7,8,9-tetrahydro-5H-pyrimido[4,5-b][1,4]diazepin-2-ylamino)-N-(3-dimethylamino-propyl)-3-methoxy-benzamide] |
| 1 to 50 | CCN1CCC(NC(=O)c2ccc(Nc3ncc4c(n3)N(C3CCC3)CC(F)(F)C(=O)N4C)c(OC)c2)CC1 [Example I-10, 4-(9-cyclobutyl-7,7-difluoro-5-methyl-6-oxo-6,7,8,9-tetrahydro-5H-pyrimido[4,5-b][1,4]diazepin-2-ylamino)-N-(1-ethyl-piperidin-4-yl)-3-methoxy-benzamide] |
| 51 to 500 | CN1C(=O)C(F)(F)CN(C2CCC2)c2nc(Nc3ccc(C(=O)O)cc3)ncc21 [Example I-11, 4-(9-cyclobutyl-7,7-difluoro-5-methyl-6-oxo-6,7,8,9-tetrahydro-5H-pyrimido[4,5-b][1,4]diazepin-2-ylamino)-benzoic acid] |
| 51 to 500 | CN1C(=O)C(F)(F)CN(C2CCC2)c2nc(Nc3ccc(C(N)=O)cc3)ncc21 [Example I-12, 4-(9-cyclobutyl-7,7-difluoro-5-methyl-6-oxo-6,7,8,9-tetrahydro-5H-pyrimido[4,5-b][1,4]diazepin-2-ylamino)-benzamide] |
| 51 to 500 | CNC(=O)c1ccc(Nc2ncc3c(n2)N(C2CCC2)CC(F)(F)C(=O)N3C)cc1 [Example I-13, 4-(9-cyclobutyl-7,7-difluoro-5-methyl-6-oxo-6,7,8,9-tetrahydro-5H-pyrimido[4,5-b][1,4]diazepin-2-ylamino)-N-methyl-benzamide] |
| 1 to 50 | CN1C(=O)C(F)(F)CN(C2CCC2)c2nc(Nc3ccc(C(=O)NC4CCNCC4)cc3)ncc21 [Example I-14, 4-(9-cyclobutyl-7,7-difluoro-5-methyl-6-oxo-6,7,8,9-tetrahydro-5H-pyrimido[4,5-b][1,4]diazepin-2-ylamino)-N-piperidin-4-yl-benzamide] |
| 51 to 500 | CN1C(=O)C(F)(F)CN(C2CCC2)c2nc(Nc3ccc(C(=O)N4CCC(N)CC4)cc3)ncc21 [Example I-15, 2-[4-(4-amino-piperidine-1-carbonyl)-phenylamino]-9-cyclobutyl-7,7-difluoro-5-methyl-5,7,8,9-tetrahydro-pyrimido[4,5-b][1,4]diazepin-6-one] |
| 1 to 50 | CN1CCC(NC(=O)c2ccc(Nc3ncc4c(n3)N(C3CCC3)CC(F)(F)C(=O)N4C)cc2)CC1 [Example I-16, 4-(9-cyclobutyl-7,7-difluoro-5-methyl-6-oxo-6,7,8,9-tetrahydro-5H-pyrimido[4,5-b][1,4]diazepin-2-ylamino)-N-(1-methyl-piperidin-4-yl)-benzamide] |
| 1 to 50 | CN1C(=O)C(F)(F)CN(C2CCC2)c2nc(Nc3ccc(C(=O)NC4CCOCC4)cc3)ncc21 [Example I-17, 4-(9-cyclobutyl-7,7-difluoro-5-methyl-6-oxo-6,7,8,9-tetrahydro-5H-pyrimido[4,5-b][1,4]diazepin-2-ylamino)-N-(tetrahydro-pyran-4-yl)-benzamide] |
| 1 to 50 | CN(C)CCNC(=O)c1ccc(Nc2ncc3c(n2)N(C2CCC2)CC(F)(F)C(=O)N3C)cc1 [Example I-18, 4-(9-cyclobutyl-7,7-difluoro-5-methyl-6-oxo-6,7,8,9-tetrahydro-5H-pyrimido[4,5-b][1,4]diazepin-2-ylamino)-N-(2-dimethylamino-ethyl)-benzamide] |
| 1 to 50 | CN(C)CCCNC(=O)c1ccc(Nc2ncc3c(n2)N(C2CCC2)CC(F)(F)C(=O)N3C)cc1 [Example I-19, 4-(9-cyclobutyl-7,7-difluoro-5-methyl-6-oxo-6,7,8,9-tetrahydro-5H-pyrimido[4,5-b][1,4]diazepin-2-ylamino)-N-(3-dimethylamino-propyl)-benzamide] |
| 1 to 50 | COc1cc(C(N)=O)ccc1Nc1ncc2c(n1)N(C1CCCC1)CC(F)(F)C(=O)N2C [Example I-23, 4-(9-cyclopentyl-7,7-difluoro-5-methyl-6-oxo-6,7,8,9-tetrahydro-5H-pyrimido[4,5-b][1,4]diazepin-2-ylamino)-3-methoxy-benzamide] |
| 1 to 50 | CNC(=O)c1ccc(Nc2ncc3c(n2)N(C2CCCC2)CC(F)(F)C(=O)N3C)c(OC)c1 [Example I-24, 4-(9-cyclopentyl-7,7-difluoro-5-methyl-6-oxo-6,7,8,9-tetrahydro-5H-pyrimido[4,5-b][1,4]diazepin-2-ylamino)-3-methoxy-N-methyl-benzamide] |
| 1 to 50 | COc1cc(C(=O)NC(C)C)ccc1Nc1ncc2c(n1)N(C1CCCC1)CC(F)(F)C(=O)N2C [Example I-25, 4-(9-cyclopentyl-7,7-difluoro-5-methyl-6-oxo-6,7,8,9-tetrahydro-5H-pyrimido[4,5-b][1,4]diazepin-2-ylamino)-N-isopropyl-3-methoxy-benzamide] |
| 1 to 50 | COc1cc(C(=O)NC2CC2)ccc1Nc1ncc2c(n1)N(C1CCCC1)CC(F)(F)C(=O)N2C [Example I-26, 4-(9-cyclopentyl-7,7-difluoro-5-methyl-6-oxo-6,7,8,9-tetrahydro-5H-pyrimido[4,5-b][1,4]diazepin-2-ylamino)-N-cyclopropyl-3-methoxy-benzamide] |
| 1 to 50 | COc1cc(C(=O)NC2CCCCC2)ccc1Nc1ncc2c(n1)N(C1CCCC1)CC(F)(F)C(=O)N2C [Example I-27, N-cyclohexyl-4-(9-cyclopentyl-7,7-difluoro-5-methyl-6-oxo-6,7,8,9-tetrahydro-5H-pyrimido[4,5-b][1,4]diazepin-2-ylamino)-3-methoxy-benzamide] |
| 1 to 50 | COCCNC(=O)c1ccc(Nc2ncc3c(n2)N(C2CCCC2)CC(F)(F)C(=O)N3C)c(OC)c1 [Example I-28, 4-(9-cyclopentyl-7,7-difluoro-5-methyl-6-oxo-6,7,8,9-tetrahydro-5H-pyrimido[4,5-b][1,4]diazepin-2-ylamino)-3-methoxy-N-(2-methoxy-ethyl)-benzamide] |
| 1 to 50 | COCCCNC(=O)c1ccc(Nc2ncc3c(n2)N(C2CCCC2)CC(F)(F)C(=O)N3C)c(OC)c1 [Example I-29, 4-(9-cyclopentyl-7,7-difluoro-5-methyl-6-oxo-6,7,8,9-tetrahydro-5H-pyrimido[4,5-b][1,4]diazepin-2-ylamino)-3-methoxy-N-(3-methoxy-propyl)-benzamide] |
| 1 to 50 | COc1cc(C(=O)NCCO)ccc1Nc1ncc2c(n1)N(C1CCCC1)CC(F)(F)C(=O)N2C [Example I-30, 4-(9-cyclopentyl-7,7-difluoro-5-methyl-6-oxo-6,7,8,9-tetrahydro-5H-pyrimido[4,5-b][1,4]diazepin-2-ylamino)-N-(2-hydroxy-ethyl)-3-methoxy-benzamide] |
| 1 to 50 | COc1cc(C(=O)NCC(F)(F)F)ccc1Nc1ncc2c(n1)N(C1CCCC1)CC(F)(F)C(=O)N2C [Example I-31, 4-(9-cyclopentyl-7,7-difluoro-5-methyl-6-oxo-6,7,8,9-tetrahydro-5H-pyrimido[4,5-b][1,4]diazepin-2-ylamino)-3-methoxy-N-(2,2,2-trifluoro-ethyl)-benzamide] |
| 51 to 500 | COc1cc(C(=O)NCC2CCCCC2)ccc1Nc1ncc2c(n1)N(C1CCCC1)CC(F)(F)C(=O)N2C [Example I-32, N-cyclohexylmethyl-4-(9-cyclopentyl-7,7-difluoro-5-methyl-6-oxo-6,7,8,9-tetrahydro-5H-pyrimido[4,5-b][1,4]diazepin-2-ylamino)-3-methoxy-benzamide] |
| 51 to 500 | COc1cc(C(=O)NCc2ccsc2)ccc1Nc1ncc2c(n1)N(C1CCCC1)CC(F)(F)C(=O)N2C [Example I-33, 4-(9-cyclopentyl-7,7-difluoro-5-methyl-6-oxo-6,7,8,9-tetrahydro-5H-pyrimido[4,5-b][1,4]diazepin-2-ylamino)-3-methoxy-N-thiophen-3-ylmethyl-benzamide] |
| 1 to 50 | COc1cc(C(=O)NCc2ccoc2)ccc1Nc1ncc2c(n1)N(C1CCCC1)CC(F)(F)C(=O)N2C [Example I-34, 4-(9-cyclopentyl-7,7-difluoro-5-methyl-6-oxo-6,7,8,9-tetrahydro-5H-pyrimido[4,5-b][1,4]diazepin-2-ylamino)-N-furan-3-ylmethyl-3-methoxy-benzamide] |
| 51 to 500 | COc1cc(C(=O)NCc2ccccc2)ccc1Nc1ncc2c(n1)N(C1CCCC1)CC(F)(F)C(=O)N2C [Example I-35, N-benzyl-4-(9-cyclopentyl-7,7-difluoro-5-methyl-6-oxo-6,7,8,9-tetrahydro-5H-pyrimido[4,5-b][1,4]diazepin-2-ylamino)-3-methoxy-benzamide] |
| 500 to 5000 | COc1cc(C(=O)NCc2ccc(C(F)(F)F)cc2)ccc1Nc1ncc2c(n1)N(C1CCCC1)CC(F)(F)C(=O)N2C [Example I-36, 4-(9-cyclopentyl-7,7-difluoro-5-methyl-6-oxo-6,7,8,9-tetrahydro-5H-pyrimido[4,5-b][1,4]diazepin-2-ylamino)-3-methoxy-N-(4-trifluoromethyl-benzyl)-benzamide] |
| 51 to 500 | COc1cc(C(=O)Nc2ccccc2)ccc1Nc1ncc2c(n1)N(C1CCCC1)CC(F)(F)C(=O)N2C [Example I-38, 4-(9-cyclopentyl-7,7-difluoro-5-methyl-6-oxo-6,7,8,9-tetrahydro-5H-pyrimido[4,5-b][1,4]diazepin-2-ylamino)-3-methoxy-N-phenyl-benzamide] |
| 1 to 50 | COc1cc(C(=O)NCCCCO)ccc1Nc1ncc2c(n1)N(C1CCCC1)CC(F)(F)C(=O)N2C [Example I-39, 4-(9-cyclopentyl-7,7-difluoro-5-methyl-6-oxo-6,7,8,9-tetrahydro-5H-pyrimido[4,5-b][1,4]diazepin-2-ylamino)-N-(4-hydroxy-butyl)-3-methoxy-benzamide] |
